Our source for the EC50 values is patent US20140343000A1 (priority 2011, published 2014).

SMILES strings stand for the structures.

In this experiment the test system is recombinant NL4-3 virus (Renilla luciferase in nef, Gag P373S; NLRluc) in MT-2 cells. Kind of experiment: whole plant or invertebrate. The class given is cell-based, HIV. The settings on record: Renilla, NL43, luciferase activity in cells infected for 4-5 days with NLRluc recombinants, serial dilutions of inhibitor; class symbols (key in Table 1); read-out: EC50. A digest of the protocol: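 Virus from 293T transfection, titered in MT-2 by luciferase. MT-2 (RPMI, 10% HI-FBS) infected ± inhibitor serial dilutions, 4-5 d. Readout: Dual Luciferase premix (lysis:reagent:Stop & Glo 2:1:1), immediate luminescence.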
`C=C(C)[C@@H]1CC[C@]2(NCCN3CCN(S(=O)(=O)c4ccc(OC)cc4)CC3)CC[C@]3(C)[C@H](CC[C@@H]4[C@@]5(C)CC=C(c6ccc(C(=O)O)cc6)C(C)(C)[C@@H]5CC[C@]43C)[C@@H]12` [Example B47, 4-((1R,3aS,5aR,5bR,7aR,11aS,11bR,13aR,13bR)-3a-((2-(4-((4-methoxyphenyl)sulfonyl)piperazin-1-yl)ethyl)amino)-5a,5b,8,8,11a-pentamethyl-1-(prop-1-en-2-yl)-2,3,3a,4,5,5a,5b,6,7,7a,8,11,11a,11b,12,13,13a,13b-octadecahydro-1H-cyclopenta[a]chrysen-9-yl)benzoic acid]: the EC50 was less than 100 nM. Take `C=C(C)[C@@H]1CC[C@]2(NCCN3CCN(S(=O)(=O)c4ccc(C)cc4)CC3)CC[C@]3(C)[C@H](CC[C@@H]4[C@@]5(C)CC=C(c6ccc(C(=O)O)cc6)C(C)(C)[C@@H]5CC[C@]43C)[C@@H]12` [Example B48, 4-((1R,3aS,5aR,5bR,7aR,11aS,11bR,13aR,13bR)-5a,5b,8,8,11a-pentamethyl-1-(prop-1-en-2-yl)-3a-((2-(4-tosylpiperazin-1-yl)ethyl)amino)-2,3,3a,4,5,5a,5b,6,7,7a,8,11,11a,11b,12,13,13a,13b-octadecahydro-1H-cyclopenta[a]chrysen-9-yl)benzoic acid]: the EC50 was less than 100 nM. Regarding `C=C(C)[C@@H]1CC[C@]2(NCCN3CCN(S(=O)(=O)c4cccc5ccccc45)CC3)CC[C@]3(C)[C@H](CC[C@@H]4[C@@]5(C)CC=C(c6ccc(C(=O)O)cc6)C(C)(C)[C@@H]5CC[C@]43C)[C@@H]12` [Example B49, 4-((1R,3aS,5aR,5bR,7aR,11aS,11bR,13aR,13bR)-5a,5b,8,8,11a-pentamethyl-3a-((2-(4-(naphthalen-1-ylsulfonyl)piperazin-1-yl)ethyl)amino)-1-(prop-1-en-2-yl)-2,3,3a,4,5,5a,5b,6,7,7a,8,11,11a,11b,12,13,13a,13b-octadecahydro-1H-cyclopenta[a]chrysen-9-yl)benzoic acid], the concentration giving a half-maximal response (EC50) was less than 100 nM. As for `C=C(C)[C@@H]1CC[C@]2(NCCN3CCN(S(=O)(=O)c4ccc(F)cc4)CC3)CC[C@]3(C)[C@H](CC[C@@H]4[C@@]5(C)CC=C(c6ccc(C(=O)O)cc6)C(C)(C)[C@@H]5CC[C@]43C)[C@@H]12` [Example B50, 4-((1R,3aS,5aR,5bR,7aR,11aS,11bR,13aR,13bR)-3a-((2-(4-((4-fluorophenyl)sulfonyl)piperazin-1-yl)ethyl)amino)-5a,5b,8,8,11a-pentamethyl-1-(prop-1-en-2-yl)-2,3,3a,4,5,5a,5b,6,7,7a,8,11,11a,11b,12,13,13a,13b-octadecahydro-1H-cyclopenta[a]chrysen-9-yl)benzoic acid], the EC50 is less than 100 nM.

Regarding `C=C(C)[C@@H]1CC[C@]2(NCCN3CCN(S(=O)(=O)c4ccc(C(=O)O)cc4)CC3)CC[C@]3(C)[C@H](CC[C@@H]4[C@@]5(C)CC=C(c6ccc(C(=O)O)cc6)C(C)(C)[C@@H]5CC[C@]43C)[C@@H]12` [Example B51, 4-((4-(2-(((1R,3aS,5aR,5bR,7aR,11aS,11bR,13aR,13bR)-9-(4-carboxyphenyl)-5a,5b,8,8,11a-pentamethyl-1-(prop-1-en-2-yl)-2,3,3a,4,5,5a,5b,6,7,7a,8,11,11a,11b,12,13,13a,13b-octadecahydro-1H-cyclopenta[a]chrysen-3a-yl)amino)ethyl)piperazin-1-yl)sulfonyl)benzoic acid], the EC50 is less than 100 nM. With `C=C(C)[C@@H]1CC[C@]2(NCCN3CCN(S(=O)(=O)c4ccc5c(c4)OCCO5)CC3)CC[C@]3(C)[C@H](CC[C@@H]4[C@@]5(C)CC=C(c6ccc(C(=O)O)cc6)C(C)(C)[C@@H]5CC[C@]43C)[C@@H]12` [Example B52, 4-((1R,3aS,5aR,5bR,7aR,11aS,11bR,13aR,13bR)-3a-((2-(4-((2,3-dihydrobenzo[b][1,4]dioxin-6-yl)sulfonyl)piperazin-1-yl)ethyl)amino)-5a,5b,8,8,11a-pentamethyl-1-(prop-1-en-2-yl)-2,3,3a,4,5,5a,5b,6,7,7a,8,11,11a,11b,12,13,13a,13b-octadecahydro-1H-cyclopenta[a]chrysen-9-yl)benzoic acid] the figure was less than 100 nM; with `C=C(C)[C@@H]1CC[C@]2(NCCN3CCN(C(=O)C4CCCCC4)CC3)CC[C@]3(C)[C@H](CC[C@@H]4[C@@]5(C)CC=C(c6ccc(C(=O)O)cc6)C(C)(C)[C@@H]5CC[C@]43C)[C@@H]12` [Example B53, 4-((1R,3aS,5aR,5bR,7aR,11aS,11bR,13aR,13bR)-3a-((2-(4-(cyclohexanecarbonyl)piperazin-1-yl)ethyl)amino)-5a,5b,8,8,11a-pentamethyl-1-(prop-1-en-2-yl)-2,3,3a,4,5,5a,5b,6,7,7a,8,11,11a,11b,12,13,13a,13b-octadecahydro-1H-cyclopenta[a]chrysen-9-yl)benzoic acid], less than 100 nM; with `C=C(C)[C@@H]1CC[C@]2(NCCN3CCN(C(=O)C4CCC4)CC3)CC[C@]3(C)[C@H](CC[C@@H]4[C@@]5(C)CC=C(c6ccc(C(=O)O)cc6)C(C)(C)[C@@H]5CC[C@]43C)[C@@H]12` [Example B54, 4-((1R,3aS,5aR,5bR,7aR,11aS,11bR,13aR,13bR)-3a-((2-(4-(cyclobutanecarbonyl)piperazin-1-yl)ethyl)amino)-5a,5b,8,8,11a-pentamethyl-1-(prop-1-en-2-yl)-2,3,3a,4,5,5a,5b,6,7,7a,8,11,11a,11b,12,13,13a,13b-octadecahydro-1H-cyclopenta[a]chrysen-9-yl)benzoic acid], less than 100 nM. As for `C=C(C)[C@@H]1CC[C@]2(NCCN3CCN(C(=O)C4CCCC4)CC3)CC[C@]3(C)[C@H](CC[C@@H]4[C@@]5(C)CC=C(c6ccc(C(=O)O)cc6)C(C)(C)[C@@H]5CC[C@]43C)[C@@H]12` [Example B55, 4-((1R,3aS,5aR,5bR,7aR,11aS,11bR,13aR,13bR)-3a-((2-(4-(cyclopentanecarbonyl)piperazin-1-yl)ethyl)amino)-5a,5b,8,8,11a-pentamethyl-1-(prop-1-en-2-yl)-2,3,3a,4,5,5a,5b,6,7,7a,8,11,11a,11b,12,13,13a,13b-octadecahydro-1H-cyclopenta[a]chrysen-9-yl)benzoic acid], the concentration giving a half-maximal response (EC50) is less than 100 nM.

`C=C(C)[C@@H]1CC[C@]2(NCCN3CCN(C(=O)CC4CCCC4)CC3)CC[C@]3(C)[C@H](CC[C@@H]4[C@@]5(C)CC=C(c6ccc(C(=O)O)cc6)C(C)(C)[C@@H]5CC[C@]43C)[C@@H]12` [Example B56, 4-((1R,3aS,5aR,5bR,7aR,11aS,11bR,13aR,13bR)-3a-((2-(4-(2-cyclopentylacetyl)piperazin-1-yl)ethyl)amino)-5a,5b,8,8,11a-pentamethyl-1-(prop-1-en-2-yl)-2,3,3a,4,5,5a,5b,6,7,7a,8,11,11a,11b,12,13,13a,13b-octadecahydro-1H-cyclopenta[a]chrysen-9-yl)benzoic acid]: the EC50 is less than 100 nM.

`C=C(C)[C@@H]1CC[C@]2(NCCN3CCN(C(=O)CC4CCCCC4)CC3)CC[C@]3(C)[C@H](CC[C@@H]4[C@@]5(C)CC=C(c6ccc(C(=O)O)cc6)C(C)(C)[C@@H]5CC[C@]43C)[C@@H]12` [Example B57, 4-((1R,3aS,5aR,5bR,7aR,11aS,11bR,13aR,13bR)-3a-((2-(4-(2-cyclohexylacetyl)piperazin-1-yl)ethyl)amino)-5a,5b,8,8,11a-pentamethyl-1-(prop-1-en-2-yl)-2,3,3a,4,5,5a,5b,6,7,7a,8,11,11a,11b,12,13,13a,13b-octadecahydro-1H-cyclopenta[a]chrysen-9-yl)benzoic acid]: the concentration giving a half-maximal response (EC50) was less than 100 nM.

Take `C=C(C)[C@@H]1CC[C@]2(NCCN3CCN(C(=O)C(C)c4ccccc4)CC3)CC[C@]3(C)[C@H](CC[C@@H]4[C@@]5(C)CC=C(c6ccc(C(=O)O)cc6)C(C)(C)[C@@H]5CC[C@]43C)[C@@H]12` (stereo partly drawn) [Example B58, 4-((1R,3aS,5aR,5bR,7aR,11aS,11bR,13aR,13bR)-5a,5b,8,8,11a-pentamethyl-3a-((2-(4-(2-phenylpropanoyl)piperazin-1-yl)ethyl)amino)-1-(prop-1-en-2-yl)-2,3,3a,4,5,5a,5b,6,7,7a,8,11,11a,11b,12,13,13a,13b-octadecahydro-1H-cyclopenta[a]chrysen-9-yl)benzoic acid]: the EC50 was less than 100 nM.

As for `C=C(C)[C@@H]1CC[C@]2(NCCN3CCN(C(=O)CC(C)C)CC3)CC[C@]3(C)[C@H](CC[C@@H]4[C@@]5(C)CC=C(c6ccc(C(=O)O)cc6)C(C)(C)[C@@H]5CC[C@]43C)[C@@H]12` [Example B59, 4-((1R,3aS,5aR,5bR,7aR,11aS,11bR,13aR,13bR)-5a,5b,8,8,11a-pentamethyl-3a-((2-(4-(3-methylbutanoyl)piperazin-1-yl)ethyl)amino)-1-(prop-1-en-2-yl)-2,3,3a,4,5,5a,5b,6,7,7a,8,11,11a,11b,12,13,13a,13b-octadecahydro-1H-cyclopenta[a]chrysen-9-yl)benzoic acid], the concentration giving a half-maximal response (EC50) was less than 100 nM. As for `C=C(C)[C@@H]1CC[C@]2(NCCN3CCN(C(=O)CC)CC3)CC[C@]3(C)[C@H](CC[C@@H]4[C@@]5(C)CC=C(c6ccc(C(=O)O)cc6)C(C)(C)[C@@H]5CC[C@]43C)[C@@H]12` [Example B60, 4-((1R,3aS,5aR,5bR,7aR,11aS,11bR,13aR,13bR)-5a,5b,8,8,11a-pentamethyl-1-(prop-1-en-2-yl)-3a-((2-(4-propionylpiperazin-1-yl)ethyl)amino)-2,3,3a,4,5,5a,5b,6,7,7a,8,11,11a,11b,12,13,13a,13b-octadecahydro-1H-cyclopenta[a]chrysen-9-yl)benzoic acid], the EC50 was less than 100 nM.

The EC50 is the concentration that produces a half-maximal response.
